Legend:
Type in all cases: functional
Conditions in all cases: time 18-20 hrs
Acinetobacter baumannii [1] = experiment: Antibacterial activity against Acinetobacter baumannii 17-8 assessed as inhibition of bacterial growth measured after 18 to 20 hrs by broth microdilution method
Escherichia coli [2] = experiment: Antibacterial activity against Escherichia coli 14-4 assessed as inhibition of bacterial growth measured after 18 to 20 hrs by broth microdilution method
Klebsiella pneumoniae [3] = experiment: Antibacterial activity against Klebsiella pneumoniae 15-5 assessed as inhibition of bacterial growth measured after 18 to 20 hrs by broth microdilution method
Escherichia coli [4] = experiment: Antibacterial activity against Escherichia coli 14-2 assessed as inhibition of bacterial growth measured after 18 to 20 hrs by broth microdilution method
Acinetobacter baumannii [5] = experiment: Antibacterial activity against Acinetobacter baumannii 17-2 assessed as inhibition of bacterial growth measured after 18 to 20 hrs by broth microdilution method
Klebsiella pneumoniae [6] = experiment: Antibacterial activity against Klebsiella pneumoniae 15-4 assessed as inhibition of bacterial growth measured after 18 to 20 hrs by broth microdilution method
Escherichia coli [7] = experiment: Antibacterial activity against Escherichia coli ATCC 35218 assessed as inhibition of bacterial growth measured after 18 to 20 hrs by broth microdilution method
Klebsiella pneumoniae [8] = experiment: Antibacterial activity against Klebsiella pneumoniae 15-1 assessed as inhibition of bacterial growth measured after 18 to 20 hrs by broth microdilution method
Pseudomonas aeruginosa [9] = experiment: Antibacterial activity against Pseudomonas aeruginosa 19-5 assessed as inhibition of bacterial growth measured after 18 to 20 hrs by broth microdilution method
Pseudomonas aeruginosa [10] = experiment: Antibacterial activity against Pseudomonas aeruginosa 17-1 assessed as inhibition of bacterial growth measured after 18 to 20 hrs by broth microdilution method

| SMILES | MIC (Acinetobacter baumannii [1]) [µg/mL] | MIC (Escherichia coli [2]) [µg/mL] | MIC (Klebsiella pneumoniae [3]) [µg/mL] | MIC (Escherichia coli [4]) [µg/mL] | MIC (Acinetobacter baumannii [5]) [µg/mL] | MIC (Klebsiella pneumoniae [6]) [µg/mL] | MIC (Escherichia coli [7]) [µg/mL] | MIC (Klebsiella pneumoniae [8]) [µg/mL] | MIC (Pseudomonas aeruginosa [9]) [µg/mL] | MIC (Pseudomonas aeruginosa [10]) [µg/mL] |
| --- | --- | --- | --- | --- | --- | --- | --- | --- | --- | --- |
| Cc1nc(-c2ccc(CSSC(C)(C)C)cc2)ccc1C(=O)N[C@@H](CCN)C(=O)N(C)[C@@H]1C(=O)N[C@@H](C)C(=O)N[C@H](C(=O)NCC#N)Cc2ccc(OCCN)c(c2)-c2cc1ccc2OCCN.O=C(O)C(F)(F)F.O=C(O)C(F)(F)F.O=C(O)C(F)(F)F.O=C(O)C(F)(F)F | 1 | 0.125 | 0.06 | 0.25 | 1 | 0.125 | ≤ 0.03 | 0.125 | 8 | 8 |
| Cc1nc(-c2ccc(CCSSC(C)(C)C)cc2)ncc1C(=O)N[C@@H](CCN)C(=O)N(C)[C@@H]1C(=O)N[C@@H](C)C(=O)N[C@H](C(=O)NCC#N)Cc2ccc(OCCN)c(c2)-c2cc1ccc2OCCN.O=C(O)C(F)(F)F.O=C(O)C(F)(F)F.O=C(O)C(F)(F)F.O=C(O)C(F)(F)F | 0.5 | ≤ 0.03 | ≤ 0.03 | ≤ 0.03 | 0.25 | 0.125 | ≤ 0.03 | 0.06 | 4 | 4 |
| Cc1nc(-c2ccc(C(C)(C)SSC(C)(C)C)cc2)ncc1C(=O)N[C@@H](CCN)C(=O)N(C)[C@@H]1C(=O)N[C@@H](C)C(=O)N[C@H](C(=O)NCC#N)Cc2ccc(OCCN)c(c2)-c2cc1ccc2OCCN.O=C(O)C(F)(F)F.O=C(O)C(F)(F)F.O=C(O)C(F)(F)F.O=C(O)C(F)(F)F | 0.5 | ≤ 0.03 | 0.25 | ≤ 0.03 | 1 | 0.25 | ≤ 0.03 | 0.125 | 4 | 4 |
| CSSC1(c2ccc(-c3ncc(C(=O)N[C@@H](CCN)C(=O)N(C)[C@@H]4C(=O)N[C@@H](C)C(=O)N[C@H](C(=O)NCC#N)Cc5ccc(OCCN)c(c5)-c5cc4ccc5OCCN)c(C)n3)cc2)CCC1.O=C(O)C(F)(F)F.O=C(O)C(F)(F)F.O=C(O)C(F)(F)F.O=C(O)C(F)(F)F | 0.25 | 0.06 | 0.125 | 0.125 | 0.5 | 0.125 | ≤ 0.03 | 0.06 | 2 | 16 |

Other lines, results leading:

| MIC (Acinetobacter baumannii [1]) [µg/mL] | MIC (Escherichia coli [2]) [µg/mL] | MIC (Klebsiella pneumoniae [3]) [µg/mL] | MIC (Escherichia coli [4]) [µg/mL] | MIC (Acinetobacter baumannii [5]) [µg/mL] | MIC (Klebsiella pneumoniae [6]) [µg/mL] | MIC (Escherichia coli [7]) [µg/mL] | MIC (Klebsiella pneumoniae [8]) [µg/mL] | MIC (Pseudomonas aeruginosa [9]) [µg/mL] | MIC (Pseudomonas aeruginosa [10]) [µg/mL] | SMILES |
| --- | --- | --- | --- | --- | --- | --- | --- | --- | --- | --- |
| 0.5 | ≤ 0.03 | 0.25 | 0.06 | 0.5 | 0.25 | ≤ 0.03 | 0.25 | 2 | 4 | CCCCCSSCc1ccc(-c2ncc(C(=O)N[C@@H](CCN)C(=O)N(C)[C@@H]3C(=O)N[C@@H](C)C(=O)N[C@H](C(=O)NCC#N)Cc4ccc(OCCN)c(c4)-c4cc3ccc4OCCN)c(C)n2)cc1.O=C(O)C(F)(F)F.O=C(O)C(F)(F)F.O=C(O)C(F)(F)F.O=C(O)C(F)(F)F |
| 1 | 0.25 | 0.5 | 0.25 | 2 | 0.5 | 0.5 | 1 | 4 | 4 | CCCCCSSc1ccc(-c2ncc(C(=O)N[C@@H](CCN)C(=O)N(C)[C@@H]3C(=O)N[C@@H](C)C(=O)N[C@H](C(=O)NCC#N)Cc4ccc(OCCN)c(c4)-c4cc3ccc4OCCN)c(C)n2)cc1.O=C(O)C(F)(F)F.O=C(O)C(F)(F)F.O=C(O)C(F)(F)F.O=C(O)C(F)(F)F |
| 1 | 0.25 | 0.25 | 0.25 | 2 | 0.5 | 0.125 | 0.5 | 16 | 32 | CSCCSSCc1ccc(-c2ncc(C(=O)N[C@@H](CCN)C(=O)N(C)[C@@H]3C(=O)N[C@@H](C)C(=O)N[C@H](C(=O)NCC#N)Cc4ccc(OCCN)c(c4)-c4cc3ccc4OCCN)c(C)n2)cc1.O=C(O)C(F)(F)F.O=C(O)C(F)(F)F.O=C(O)C(F)(F)F.O=C(O)C(F)(F)F |

Source: ChEMBL document CHEMBL5518248, “Design, Synthesis, and Biological Evaluation of Novel Arylomycins against Multidrug-Resistant Gram-Negative Bacteria” (J Med Chem, 2024)
